Measured values: patent US7109216B2 (priority 2001, dated 2006)
pKi: −log10 of the molar value.

Biological target: human cannabinoid CB1 receptor (Homo sapiens, UniProt P21554)
Experiment: biochemical
Type: binding
Parameters: expressed in transfected cells; host or cells: Chinese hamster ovary (CHO) cells, membrane preparation
Conditions: [3H]CP-55,940 radioligand; CHO cell membranes stably transfected with human CB1; read-out: hCB1 pKi (converted)
Description: After incubation of a freshly prepared cell membrane preparation with the [^3H]-ligand, with or without addition of compounds of the invention, separation of bound and free ligand was performed by filtration over glassfiber filters. Radioactivity on the filter was measured by liquid scintillation counting.

Sequence of human cannabinoid CB1 receptor (P21554 whole entry): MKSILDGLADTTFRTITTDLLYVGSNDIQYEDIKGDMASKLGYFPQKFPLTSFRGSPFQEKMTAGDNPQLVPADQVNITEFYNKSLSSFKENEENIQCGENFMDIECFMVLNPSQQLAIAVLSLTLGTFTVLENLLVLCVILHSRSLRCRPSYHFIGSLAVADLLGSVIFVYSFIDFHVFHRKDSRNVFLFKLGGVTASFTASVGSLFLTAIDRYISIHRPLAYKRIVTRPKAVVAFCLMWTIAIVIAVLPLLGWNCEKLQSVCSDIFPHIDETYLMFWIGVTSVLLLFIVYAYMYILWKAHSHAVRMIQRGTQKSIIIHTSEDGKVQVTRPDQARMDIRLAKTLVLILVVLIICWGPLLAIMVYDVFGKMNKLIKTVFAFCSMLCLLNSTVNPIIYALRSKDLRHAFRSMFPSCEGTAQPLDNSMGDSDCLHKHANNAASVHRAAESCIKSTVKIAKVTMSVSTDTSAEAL

SMILES	Ki
O=C(Nc1ccccc1)c1cn(-c2ccc(Cl)cc2)c(-c2ccc(Cl)cc2Cl)n1 [Example 4, 1-(4-Chlorophenyl)-2-(2,4-dichlorophenyl)-N-phenyl-1H-imidazole-4-carboxamide]	126 nM
Cc1c(C(=O)NOC(C)(C)C)nc(-c2ccc(Cl)cc2)n1-c1ccc(Cl)cc1Cl [Example 11, N-(t-Butoxy)-2-(4-chlorophenyl)-1-(2,4-dichlorophenyl)-5-methyl-1H-imidazole-4-carboxamide]	501 nM

Same assay, conditions: hCB1 pKi, [3H]CP-55,940 radioligand; CHO cell membranes stably transfected with human CB1

SMILES	pKi
Cc1c(C(=O)N(C)C)nc(-c2ccc(Cl)cc2Cl)n1-c1ccc(Cl)cc1 [Example 50, 1-(4-Chlorophenyl)-2-(2,4-dichlorophenyl)-N,N,5-trimethyl-1H-imidazole-4-carboxamide]	8.30
Cc1c(C(=O)NN2CCCCCC2)nc(-c2ccc(Cl)cc2Cl)n1-c1ccc(Cl)cn1 [Example 53, N-(1-Azepanyl)-1-(5-Chloropyridin-2-yl)-2-(2,4-dichlorophenyl)-5-methyl-1H-imidazole-4-carboxamide]	7.30
Cc1c(C(=O)NC2CCCCC2)nc(-c2ccc(Cl)cc2Cl)n1-c1ccc(Cl)cn1 [Example 54, 1-(5-Chloropyridin-2-yl)-N-cyclohexyl-2-(2,4-dichlorophenyl)-5-methyl-1H-imidazole-4-carboxamide]	7.00
CCCCCNC(=O)c1nc(-c2ccc(Cl)cc2Cl)n(-c2ccc(Cl)cn2)c1C [Example 55, 1-(5-Chloropyridin-2-yl)-2-(2,4-dichlorophenyl)-5-methyl-N-(n-pentyl)-1H-imidazole-4-carboxamide]	7.30
CCCCCNC(=O)c1nc(-c2ccc(Cl)cc2Cl)n(-c2ccc(Cl)cn2)c1CC [Example 79, 1-(5-Chloropyridin-2-yl)-2-(2,4-dichlorophenyl)-5-ethyl-N-(n-pentyl)-1H-imidazole-4-carboxamide]	7.80
Cc1c(C(=O)NC2CC3CCC2C3)nc(-c2ccc(Cl)cc2Cl)n1-c1ccc(Cl)cc1 (stereo not drawn) [Example 89, N-(Endo-bicyclo[2.2.1]hept-2-yl)-1-(4-chlorophenyl)-2-(2,4-dichlorophenyl)-5-methyl-1H-imidazole-4-carboxamide]	8.20
CCCCCNC(=O)c1nc(-c2ccc(Cl)cc2Cl)n(-c2ccc(Cl)cc2)c1C [Example 91, 1-(4-Chlorophenyl)-2-(2,4-dichlorophenyl)-5-methyl-N-(n-pentyl)-1H-imidazole-4-carboxamide]	7.50
CS(=O)(=O)c1c(C(=O)NC2CCCCC2)nc(-c2ccc(Cl)cc2Cl)n1-c1ccc(Cl)cc1 [Example 119, 1-(4-chlorophenyl)-2-(2,4-dichlorophenyl)-5-methylsulfonyl-N-(cyclohexyl)-1H-imidazole-4-carboxamide]	7.20
CSc1c(C(=O)NC2CCCCC2)nc(-c2ccc(Cl)cc2Cl)n1-c1ccc(Cl)cc1 [Example 121, 1-(4-chlorophenyl)-2-(2,4-dichlorophenyl)-5-methylsulfanyl-N-(cyclohexyl)-1H-imidazole-4-carboxamide]	7.20

Test system: not given
Experiment: not given
Conditions: not given

SMILES	melting point
CCc1c(C(=O)NC2CCCCC2)nc(-c2cc(Cl)ccc2Cl)n1-c1ccccc1	198 to 199 °C
Cc1cccnc1-c1nc(C(=O)NC2CCCCC2)c(C)n1-c1ccc(Cl)cc1	188 to 190 °C
O=C(NN1CCCC1)c1cn(-c2ccc(Br)cc2)c(-c2ccc(Cl)cc2Cl)n1	238 to 240 °C
CCCCCNC(=O)c1cn(-c2ccc(Cl)cc2)c(-c2ccc(Cl)cc2OC)n1	115 °C
CCN(CC)C(=O)c1cn(-c2ccc(Cl)cc2)c(-c2ccc(Cl)cc2Cl)n1	177 to 179 °C
O=C(NC12CC3CC(CC(C3)C1)C2)c1cn(-c2ccc(Cl)cc2)c(-c2ccc(Cl)cc2C(F)(F)F)n1	288 °C
O=C(NCC(F)(F)F)c1cn(-c2ccc(Cl)cc2)c(-c2ccc(Cl)cc2C(F)(F)F)n1	149 °C
CCCCCNC(=O)c1cn(-c2cccnc2)c(-c2ccc(Cl)cc2Cl)n1	117 °C
COc1cc(Cl)ccc1-c1nc(C(=O)NN2CCCCC2)c(C)n1-c1ccc(Cl)cc1	> 256 °C
CCCCCNC(=O)c1nc(-c2ccccc2Cl)n(-c2cccc(F)c2)c1C	97 to 102 °C
